PMC5706701, “Development of a homogenous high-throughput assay for inositol hexakisphosphate kinase 1 activity” (PLoS ONE, 2017)
Structures can show the parent of a compound that is named as a salt. Where two headings read alike, the source gives them in different places. Where a SMILES comes first, the peptide text is derived from it. The star is where a group is joined. Cbz = O=C(OCc1ccccc1)*

Biological target: T1, Human IP6K1 (Homo sapiens, UniProt Q92551)
T1 construct: GST (N, cleaved yes); made in house; host or cells: C43 E. coli, pGEX-6P-2
Assay: IP6K1 high-throughput screen of the Sigma LOPAC (ADP-Glo Max, single point);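 also: final compound concentration 10µM in 5% DMSO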
Type: biochemical

[1] = LOPAC single-point screen, ADP-Glo Max luminescence raw signal per well
[2] = LOPAC single-point screen, Z-score relative to plate average and StDev
[3] = Sigma LOPAC single-point screen, ADP-Glo Max raw signal per well
[4] = Sigma LOPAC single-point screen, Z-score from plate average and StDev
[5] = LOPAC single-point screen, ADP-Glo Max raw signal per well
[6] = LOPAC single-point screen, Z-score from raw signal with plate average and StDev
[7] = LOPAC single-point screen, Z-score against plate average and StDev
[8] = LOPAC single-point screen, Z-score from plate average and StDev

T1 sequence (Q92551 whole entry): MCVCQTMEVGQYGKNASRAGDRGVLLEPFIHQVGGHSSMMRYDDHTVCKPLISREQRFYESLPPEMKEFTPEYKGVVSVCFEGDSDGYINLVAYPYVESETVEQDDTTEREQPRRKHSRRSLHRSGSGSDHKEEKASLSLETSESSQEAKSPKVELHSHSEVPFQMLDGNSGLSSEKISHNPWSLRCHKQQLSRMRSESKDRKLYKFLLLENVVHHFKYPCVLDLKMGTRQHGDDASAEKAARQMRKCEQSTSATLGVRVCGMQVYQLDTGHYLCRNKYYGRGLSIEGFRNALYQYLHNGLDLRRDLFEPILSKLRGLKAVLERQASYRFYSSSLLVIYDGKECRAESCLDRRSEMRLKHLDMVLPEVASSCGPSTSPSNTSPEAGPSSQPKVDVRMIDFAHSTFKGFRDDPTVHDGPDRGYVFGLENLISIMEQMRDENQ

Molecule | Raw Signal [3] | Z-score [4] | Raw Signal [5] | further results
CN(N=O)c1ccc(O)c(O)c1 [Me-3,4-dephostatin] | – | – | – | Raw Signal [1]: 32245; Z-score [2]: -3.722
CCCCNc1c(C(=O)OCC)c(C)nc2c1cnn2CC [Tracazolate] | 59222 | 0.6213 | – | –
Cc1c(CC(C)(C)C(=O)O)n(Cc2ccc(Cl)cc2)c2ccc(F)cc12 [L-655,240] | – | – | – | Raw Signal [1]: 51424; Z-score [2]: -0.499
CC(Oc1ccc(Oc2cnc3ccc(Cl)cc3n2)cc1)C(=O)O (stereo not shown) [XK469] | – | – | 55038 | Z-score [6]: -0.1915
CCCCCCCCCCCCCCCCCCOCC(COP(=O)([O-])OCC[N+](C)(C)C)OC (stereo not shown) [ET-18-OCH3] | – | – | – | Raw Signal [1]: 51314; Z-score [2]: -0.7825
Cl.N[C@@H](Cc1cnc[nH]1)C(=O)O [L-Histidine hydrochloride] | 61451 | 1.276 | – | –
N[C@@H](Cc1c[nH]c2ccccc12)C(=O)O [L-Tryptophan] | 60593 | 0.8877 | – | –
CCN(CC)C(=S)SSC(=S)N(CC)CC [Tetraethylthiuram disulfide] | – | – | 54661 | Z-score [6]: -0.2648
CCCCCCCCCCCCCCCCCC(=O)OC(CC(=O)O)C[N+](C)(C)C.[Cl-] (racemic) [DL-Stearoylcarnitine chloride] | – | – | 55265 | Z-score [6]: -0.1474
O=c1c(-c2ccc(O)cc2)coc2cc(O)cc(O)c12 [Genistein] | – | – | 53223 | Z-score [6]: -0.3948
CN(C)C(=O)N=NC(=O)N(C)C [N,N,N ,N -Tetramethylazodicarboxamide] | 57249 | 0.4228 | – | –
Br.CO[C@H]1CC=C2CCN3CCC4=C(CC(=O)OC4)[C@]23C1 [Dihydro-beta-erythroidine hydrobromide] | – | – | – | Raw Signal [1]: 51044; Z-score [2]: -0.8373
Cc1ccc(OCC(O)C(C)NC(C)C)c2c1CCC2.Cl (stereo not shown) [ICI 118,551 hydrochloride] | 57174 | 0.4672 | – | –
(+)-Catechin Hydrate | – | – | 56524 | Z-score [6]: -0.2447
Cn1ccc2cc3c(cc21)CCN3C(=O)Nc1cccnc1 [SB 206553 hydrochloride] | – | – | 56981 | Z-score [7]: 0.186
CC(C)[C@H](NC(=O)OCc1ccccc1)C(=O)N[C@H](C=O)Cc1ccccc1 [MDL 28170] (Cbz-Val-Phe-aldehyde) | – | – | – | Raw Signal [1]: 65838; Z-score [8]: 1.923
Cc1cccc(/C=C/c2ccccc2)n1 [SIB 1893] | – | – | 55669 | Z-score [7]: -0.06893
CC(=O)OCC1=C(C(=O)O)N2C(=O)[C@@H](NC(=O)Cc3cccs3)[C@H]2SC1 [Cephalothin sodium] | – | – | 58709 | Z-score [7]: 0.1402
CN1C2CCC1CC(OC(c1ccccc1)c1ccc(Cl)cc1)C2.Cl (stereo not shown) | – | – | – | Raw Signal [1]: 50933; Z-score [2]: -0.8599
CC(=O)O[C@]1(C(C)=O)CC[C@H]2[C@@H]3C=C(Cl)C4=CC(=O)[C@@H]5C[C@@H]5[C@]4(C)[C@H]3CC[C@@]21C [Cyproterone acetate] | 63165 | 0.925 | – | –
O=c1ccn(C2OC(COP(=O)(O)OP(=O)([O-])O)C(O)C2O)c(=O)[nH]1.[Na+] (stereo not shown) [Uridine 5 -diphosphate sodium] | 58265 | 0.4354 | – | –
CC1=C(/C=C/C(C)=C/C=C/C(C)=C/C(=O)Nc2ccc(O)cc2)C(C)(C)CCC1 [Retinoic acid p-hydroxyanilide] | – | – | 55637 | Z-score [7]: 0.09545
O=C(O)c1cc(O)c2ccc(Cl)cc2n1 [7-Chlorokynurenic acid] | – | – | 53866 | Z-score [6]: -0.2642
Nc1nc(N)c2nc(-c3ccccc3)c(N)nc2n1 [Triamterene] | – | – | – | Raw Signal [1]: 65476; Z-score [8]: 1.836

Molecule | Raw Signal [3] | Z-score [4] | Raw Signal [5] | further results
COC(=O)[C@H]1[C@H]2C[C@H]3c4[nH]c5ccccc5c4CCN3C[C@H]2CC[C@@H]1O [Rauwolscine hydrochloride] | – | – | 54997 | Z-score [6]: -0.1995
CC(CN1c2ccccc2Sc2ccccc21)N(C)C (stereo not shown) [Promethazine hydrochloride] | 57662 | 0.5492 | – | –
COc1ccc(C(=O)N2CCCC2=O)cc1 [Aniracetam] | – | – | 56032 | Z-score [6]: -0.3313
COc1cc2c(c(OC)c1OC)-c1ccc(OC)c(=O)cc1[C@@H](NC(C)=O)CC2 [Colchicine] | – | – | 58343 | Z-score [7]: 0.07572
Nc1ncnc2c1ncn2[C@@H]1O[C@H](C(=O)NC2CC2)[C@@H](O)[C@H]1O [5 -(N-Cyclopropyl)carboxamidoadenosine] | – | – | 57761 | Z-score [7]: -0.02679
Cn1cnc2c(NC3CCCC3)ncnc21 [N6-Cyclopentyl-9-methyladenine] | – | – | 52967 | Z-score [6]: -0.2397
Cl.NCCNC(=O)c1ccc(Cl)cc1 [Ro 16-6491 hydrochloride] | 60492 | 0.8681 | – | –
O=C(N[C@@H](Cc1ccccc1)C(=O)CCl)OCc1ccccc1 [Z-L-Phe chloromethyl ketone] | – | – | 56278 | Z-score [6]: -0.288
CC/C(=C(\c1ccccc1)c1ccc(OCCN(C)C)cc1)c1ccccc1 [Tamoxifen citrate] | 60879 | 0.9433 | – | –
CN(C)CC/C=C1/c2ccccc2Sc2ccc(Cl)cc21 [Chlorprothixene hydrochloride] | 61517 | 0.6347 | – | –
NCCCCNCCCN [Spermidine trihydrochloride] | 60576 | 0.8844 | – | –
CC(C)(C)NCC(O)c1cc(O)cc(O)c1.CC(C)(C)NCC(O)c1cc(O)cc(O)c1.O=S(=O)(O)O (stereo not shown) [Terbutaline hemisulfate] | 59192 | 0.6155 | – | –
C[C@](N)(Cc1ccc(O)cc1)C(=O)O [L-alpha-Methyl-p-tyrosine] | – | – | 53929 | Z-score [7]: -0.07805
C1CNCCN1.COc1cc(C(O)CO)ccc1O.COc1cc(C(O)CO)ccc1O (stereo not shown) [MHPG piperazine] | 58694 | 0.7163 | – | –
Cn1cc(C(=O)OCC2CCN(CCNS(C)(=O)=O)CC2)c2ccccc21 [GR 113808] | – | – | 56278 | Z-score [6]: -0.288
O=C(O)C1=CCNCC1 [Isoguvacine hydrochloride] | – | – | 53600 | Z-score [6]: -0.3182
C[C@@]1(C2CCCC2)Cc2cc(OCC(=O)O)c(Cl)c(Cl)c2C1=O [R(+)-IAA-94] | – | – | – | Raw Signal [1]: 46670; Z-score [2]: -1.298
NC[C@H](O)c1ccc(O)c(O)c1.O=C(O)C(O)C(O)C(=O)O [L(-)-Norepinephrine bitartrate] | – | – | – | Raw Signal [1]: 29897; Z-score [2]: -4.934
Cl.c1ccc2nc(C3=NCCN3)ccc2c1 [BU224 hydrochloride] | 61573 | 0.6446 | – | –
Cl.OCc1c[nH]cn1 [4-Imidazolemethanol hydrochloride] | – | – | 56297 | Z-score [7]: 0.2295
CCN(CC)CC.Nc1ncnc2c1ncn2C1OC2COP(O)(=S)O[C@@H]2[C@@H]1O (stereo partly shown) [Rp-cAMPS triethylamine] | – | – | – | Raw Signal: 55695; Z-score: -0.3907
CC(=O)N[C@@H](Cc1c[nH]c2ccccc12)C(=O)OCc1cc(C(F)(F)F)cc(C(F)(F)F)c1 [L-732,138] | – | – | – | Raw Signal [1]: 53722; Z-score [2]: -0.7382
CC1=C(CC(=O)O)c2cc(F)ccc2/C1=C\c1ccc(S(C)(=O)=O)cc1 [Sulindac sulfone] | – | – | 56423 | Z-score [7]: 0.07756
